According to patent US20070293582A1, “Epinephrine dosing regimens comprising buccal, lingual or sublingual and injectable dosage forms” (priority 2006, published 2007):
Read-outs that look alike come from different tables or passages of the source.

System: patient experiencing an allergic emergency (symptoms of anaphylaxis)
Conditions: approximately 5 minutes apart
Description: (§1) A patient experiencing an allergic emergency initiates treatment at the onset of shortness of breath by self administering 40 mg of epinephrine free base in a buccal dosage form.
as §1
A patient experiencing an allergic emergency initiates treatment at the onset of shortness of breath by self administering 40 mg of epinephrine free base in a lingual dosage form.

Measured: patient's symptoms of anaphylaxis

CNC[C@H](O)c1ccc(O)c(O)c1 [epinephrine]
relieved: Example 1: 40 mg buccal, second 40 mg buccal, then first auto-injected 0.3 mg dose, outcome within about five minutes after the first injectable dose | Example 2: 40 mg buccal, 60 mg buccal, then two auto-injected 0.3 mg doses, outcome within about five minutes after the second injectable dose | Example 3: 40 mg lingual, 60 mg lingual, then two auto-injected 0.3 mg doses, outcome within about five minutes after the second injectable dose
